According to the supplement of paper PMC6045584:
± gives the standard deviation of the averaged measurements.

Experiments:
SUNITINIB = compound: CCN(CC)CCNC(=O)c1c(C)[nH]c(/C=C2\C(=O)Nc3ccc(F)cc32)c1C [SUNITINIB]; experiment: surviving fraction relative to DMSO-only wells; higher = less growth inhibition; details: exposure time: 5 days
Summary of the method: (§1)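 A line counted only if its three screens reached replicate Pearson r >0.7 and median Z' >0.3. Tumour cells in log phase were seeded at 250–500 per well in 384-well plates and, after 24 hours, kept in continuous contact with inhibitors at 0.5, 1, 5, 10, 50, 100, 500 and 1000 nM for five days. Surviving fraction was taken from CellTiter-Glo luminescence relative to the median of DMSO-only wells.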

VINORELBINE = compound: CCC1=C[C@@H]2CN(C1)Cc1c([nH]c3ccccc13)[C@@](C(=O)OC)(c1cc3c(cc1OC)N(C)[C@H]1[C@@](O)(C(=O)OC)[C@H](OC(C)=O)[C@]4(CC)C=CCN5CC[C@]31[C@@H]54)C2 [VINORELBINE]; experiment: as above; details: exposure time: 5 days
Summary of the method: as §1

Test System	surviving fraction (SUNITINIB; 0.5 nM)	surviving fraction (SUNITINIB; 10 nM)	surviving fraction (SUNITINIB; 50 nM)	surviving fraction (SUNITINIB; 500 nM)	surviving fraction (SUNITINIB; 1000 nM)	surviving fraction (VINORELBINE; 0.5 nM)	surviving fraction (VINORELBINE; 1 nM)	surviving fraction (VINORELBINE; 5 nM)	surviving fraction (VINORELBINE; 10 nM)	surviving fraction (VINORELBINE; 50 nM)	surviving fraction (VINORELBINE; 100 nM)	surviving fraction (VINORELBINE; 500 nM)	surviving fraction (VINORELBINE; 1000 nM)	surviving fraction (SUNITINIB; 100 nM)	surviving fraction (SUNITINIB; 1 nM)	surviving fraction (SUNITINIB; 5 nM)
MDAMB453 BREAST	0.982 ± 0.0066	1.03 ± 0.026	1.022 ± 0.005	0.986 ± 0.059	0.724 ± 0.047	1.04 ± 0.049	1.029 ± 0.004	0.387 ± 0.038	0.244 ± 0.022	0.16 ± 0.034	0.116 ± 0.018	0.176 ± 0.044	0.25 ± 0.048	–	–	–
MDAMB468 BREAST	0.8 ± 0.046	0.927 ± 0.072	1.1 ± 0.091	–	–	1.02 ± 0.065	0.929 ± 0.019	0.645 ± 0.025	0.379 ± 0.041	0.0613 ± 0.007	0.0593 ± 0.005	0.117 ± 0.016	0.177 ± 0.0095	1.04 ± 0.084	–	–
MFM223 BREAST	0.75 ± 0.033	0.707 ± 0.041	1.01 ± 0.11	0.398 ± 0.013	0.247 ± 0.015	1.13 ± 0.1	1.05 ± 0.066	0.905 ± 0.094	0.512 ± 0.01	0.0818 ± 0.0055	0.0723 ± 0.011	0.0547 ± 0.00076	0.0517 ± 0.0023	0.832 ± 0.058	0.758 ± 0.032	0.7412 ± 0.002
MG63 BONE	0.872 ± 0.02	–	0.877 ± 0.028	0.721 ± 0.025	0.637 ± 0.014	1.02 ± 0.025	1 ± 0.043	1.06 ± 0.02	1 ± 0.023	0.07 ± 0.0095	0.0503 ± 0.014	0.0683 ± 0.0071	0.065 ± 0.0046	0.854 ± 0.016	0.865 ± 0.034	0.876 ± 0.015
MHM BONE	0.956 ± 0.038	–	–	0.881 ± 0.021	0.774 ± 0.021	1.01 ± 0.029	0.988 ± 0.029	1.022 ± 0.0092	1 ± 0.02	0.493 ± 0.025	0.325 ± 0.029	0.22 ± 0.013	0.195 ± 0.014	–	0.962 ± 0.021	0.9887 ± 0.0061
NCIH441 LUNG	0.963 ± 0.039	0.952 ± 0.029	1.02 ± 0.043	–	0.764 ± 0.079	1.13 ± 0.13	1.11 ± 0.059	1.02 ± 0.072	0.877 ± 0.029	0.4817 ± 0.0045	0.422 ± 0.041	0.497 ± 0.054	0.423 ± 0.044	0.977 ± 0.079	–	–
NOS1 BONE	0.762 ± 0.05	0.645 ± 0.039	0.561 ± 0.029	0.167 ± 0.012	0.113 ± 0.03	0.987 ± 0.04	1.1 ± 0.081	0.978 ± 0.024	0.805 ± 0.024	0.287 ± 0.047	0.263 ± 0.035	0.195 ± 0.017	0.188 ± 0.016	0.391 ± 0.027	–	–
NY BONE	0.904 ± 0.016	0.918 ± 0.04	0.937 ± 0.01	0.696 ± 0.023	0.481 ± 0.036	0.994 ± 0.019	0.964 ± 0.026	0.924 ± 0.075	0.437 ± 0.016	0.0393 ± 0.0031	0.035 ± 0.006	0.0417 ± 0.0074	0.0433 ± 0.0075	0.929 ± 0.019	0.855 ± 0.023	–
OS25HAL BONE	0.886 ± 0.014	0.871 ± 0.053	0.926 ± 0.038	0.767 ± 0.07	0.431 ± 0.04	0.97 ± 0.046	0.985 ± 0.021	1.02 ± 0.024	0.912 ± 0.052	0.202 ± 0.02	0.0833 ± 0.0083	0.0677 ± 0.011	0.057 ± 0.007	0.925 ± 0.02	–	–
OSHN BONE	0.9083 ± 0.0045	0.8813 ± 0.0055	–	0.86 ± 0.019	0.42 ± 0.026	1.07 ± 0.022	1.048 ± 0.0086	1.09 ± 0.021	1.04 ± 0.021	0.0367 ± 0.0021	0.025 ± 0.001	0.026	0.0293 ± 0.00058	0.962 ± 0.017	0.906 ± 0.0096	–
PCI30 HEADNECK	0.949 ± 0.075	1.13 ± 0.05	1.38 ± 0.064	1.2 ± 0.033	1.03 ± 0.052	0.994 ± 0.024	1.05 ± 0.02	0.463 ± 0.054	0.228 ± 0.017	0.078 ± 0.003	0.0933 ± 0.022	0.113 ± 0.025	0.147 ± 0.025	1.45 ± 0.19	0.936 ± 0.033	–
RDES SOFT TISSUE	0.851 ± 0.24	0.794 ± 0.12	–	1.17 ± 0.17	0.567 ± 0.099	1.23 ± 0.18	1.15 ± 0.28	1.19 ± 0.18	1.24 ± 0.39	0.0793 ± 0.0093	0.071 ± 0.011	0.039 ± 0.0036	0.039 ± 0.005	1.08 ± 0.19	0.741 ± 0.2	0.794 ± 0.11
S68 BREAST	0.716 ± 0.13	0.74 ± 0.18	1.07 ± 0.098	0.709 ± 0.065	0.488 ± 0.1	1.12 ± 0.4	0.785 ± 0.22	0.995 ± 0.23	0.572 ± 0.26	0.155 ± 0.034	0.143 ± 0.013	0.0783 ± 0.015	0.0627 ± 0.0081	0.98 ± 0.13	0.674 ± 0.15	–
SAOS2 BONE	0.792 ± 0.052	0.692 ± 0.073	0.985 ± 0.064	0.301 ± 0.046	0.154 ± 0.0052	1.12 ± 0.014	1.18 ± 0.066	1.07 ± 0.06	0.812 ± 0.038	0.155 ± 0.0063	0.0997 ± 0.0029	0.11 ± 0.0081	0.104 ± 0.032	0.863 ± 0.093	0.691 ± 0.088	–
SCC36 HEADNECK	0.754 ± 0.059	0.714 ± 0.078	–	0.441 ± 0.047	0.222 ± 0.021	1.09 ± 0.15	0.927 ± 0.057	1.09 ± 0.093	0.819 ± 0.059	0.161 ± 0.0035	0.135 ± 0.026	0.0993 ± 0.011	0.1 ± 0.024	0.872 ± 0.074	0.783 ± 0.11	0.8 ± 0.02
SCC47 HEADNECK	0.886 ± 0.019	–	1.02 ± 0.016	0.726 ± 0.022	0.502 ± 0.041	1.09 ± 0.13	1.06 ± 0.013	0.967 ± 0.055	0.693 ± 0.044	0.231 ± 0.023	0.1977 ± 0.0011	0.302 ± 0.022	0.289 ± 0.0068	–	0.9 ± 0.059	–
SCC90 HEADNECK	–	0.887 ± 0.064	–	0.819 ± 0.06	0.522 ± 0.052	1.04 ± 0.072	1.04 ± 0.06	1.01 ± 0.12	0.616 ± 0.066	0.126 ± 0.0029	0.099 ± 0.0066	0.097 ± 0.01	0.106 ± 0.015	1.25 ± 0.17	0.814 ± 0.086	–
SG27 HEADNECK	–	0.744 ± 0.046	1.22 ± 0.077	1.72 ± 0.17	0.81 ± 0.064	1.17 ± 0.16	1.09 ± 0.096	1.13 ± 0.12	1.08 ± 0.15	1.03 ± 0.1	1.15 ± 0.018	1.26 ± 0.08	1.33 ± 0.27	1.25 ± 0.12	0.949 ± 0.026	0.922 ± 0.072
SG28 HEADNECK	0.913 ± 0.11	0.313 ± 0.042	0.893 ± 0.14	0.4727 ± 0.0046	0.124 ± 0.017	1.17 ± 0.22	1.04 ± 0.061	0.998 ± 0.099	0.861 ± 0.13	0.589 ± 0.087	0.538 ± 0.11	0.521 ± 0.016	0.542 ± 0.071	0.725 ± 0.044	0.789 ± 0.051	0.807 ± 0.086
